Test results published in patent publication US11207320B2, “Compositions and methods for cancer expressing PDE3A or SLFN12” (The Broad Institute, Inc., priority 2015, dated 2021).

Tested on: 766 cancer cell lines
Test: Large-scale cell-line viability measurements (766 cancer cell lines, 72 h, AUC)
Format: cell-based, human
Conditions: 72 hours
Method: Cell lines were treated for 72 hours with concentrations ranging from 66.4 μM-2 nM in 2-fold step dilutions.
To characterize cellular sensitivity to DNMDP further, 766 genomically characterized cancer cell lines were screened for DMNDP sensitivity at concentrations ranging from 66.4 μM to 2 nM in 2-fold dilution steps for 72 hours. From these cell lines, 22 cell lines were categorized as sensitive with a robust Z-score lower than −4, which represented multiple lineages including multiple melanoma cell lines, amongst others (Table 1).
The sensitivity of […] cancer cell lines (CCLs) was measured drawn from 23 different lineages to DNMDP. Each cell line was plated in its preferred media in white opaque 1536-plates at a density of 500 cells/well. After incubating overnight, DNMDP was added by acoustic transfer at 16 concentrations ranging from 66.4 μM-2 nM in 2-fold steps in duplicate (Labcyte Echo 555, Labcyte Inc., Sunnyvale, Calif.). After 72 hours treatment, cellular ATP levels were measured as a surrogate for viability (CELLTITERGLO®, Promega Corporation, Madison, Wis.) according to manufacturer's protocols using a ViewLux Microplate Imager (PerkinElmer, Waltham, Mass.) and normalized to background (media-only) and vehicle (DMSO)-treated control wells.
Concentration response curves were fit using nonlinear fits to 2- or 3-parameter sigmoid functions through all 16 concentrations with the low-concentration asymptote set to the DMSO-normalized value, and an optimal 8-point dose curve spanning the range of compound-sensitivity was identified. The area under the 8-point dose curve (AUC) was computed by numeric integration as a metric for sensitivity for further analysis. Similar sensitivity measurements have been obtained for a collection of 480 other compounds, enabling analyses that identify cell lines responding uniquely to DNMDP (see Broad Institute Cancer Therapeutics Response Portal, a dataset to identify comprehensively relationships between genetic and lineage features of human cancer cell lines and small-molecule sensitivities for complete list of compounds).

[1] = MOLM6 (HAEMATOPOIETIC AND LYMPHOID TISSUE)
[2] = MOLT13 (HAEMATOPOIETIC AND LYMPHOID TISSUE)
[3] = MV411 (HAEMATOPOIETIC AND LYMPHOID TISSUE)
[4] = NALM6 (HAEMATOPOIETIC AND LYMPHOID TISSUE)
[5] = NB4 (HAEMATOPOIETIC AND LYMPHOID TISSUE)
[6] = NCO2 (HAEMATOPOIETIC AND LYMPHOID TISSUE)
[7] = OCIAML2 (HAEMATOPOIETIC AND LYMPHOID TISSUE)
[8] = OCILY19 (HAEMATOPOIETIC AND LYMPHOID TISSUE)
[9] = PECAPJ15 (UPPER AERODIGESTIVE TRACT)
[10] = PF382 (HAEMATOPOIETIC AND LYMPHOID TISSUE)
[11] = RPMI8402 (HAEMATOPOIETIC AND LYMPHOID TISSUE)
[12] = SCC4 (UPPER AERODIGESTIVE TRACT)
[13] = SNU1214 (UPPER AERODIGESTIVE TRACT)
[14] = U118MG (CENTRAL NERVOUS SYSTEM)
[15] = U266B1 (HAEMATOPOIETIC AND LYMPHOID TISSUE)
[16] = U937 (HAEMATOPOIETIC AND LYMPHOID TISSUE)

For `CCN(CC)c1ccc(C2=NNC(=O)CC2C)cc1[N+](=O)[O-]` (centres unmarked) [DNMDP, 6-(4-(diethylamino)-3-nitrophenyl)-5-methyl-4,5-dihydropyridazin-3(2H)-one], the “Robust Z-score” value (LU99 (LUNG)) was −0.8744, the “DNMDP AUC” value (LXF289 (LUNG)) was 5.734 and the “Robust Z-score” value (LXF289 (LUNG)) was −0.9454. The “DNMDP AUC” value (MALME3M (SKIN)) was 6.112, the “Robust Z-score” value (MALME3M (SKIN)) was −0.5486 and the “DNMDP AUC” value (MCF7 (BREAST)) was 6.1256. For the same molecule, the “Robust Z-score” value (MCF7 (BREAST)) was −0.5343, the “DNMDP AUC” value (MEWO (SKIN)) was 5.738 and the “Robust Z-score” value (MEWO (SKIN)) was −0.9412. For the same molecule, the “DNMDP AUC” value (MKN7 (STOMACH)) was 6.1453, the “Robust Z-score” value (MKN7 (STOMACH)) was −0.5136 and the “DNMDP AUC” value [1] was 6.0447. For the same molecule, the “Robust Z-score” value [1] was −0.6192, the “DNMDP AUC” value [2] was 6.084 and the “Robust Z-score” value [2] was −0.578. For the same molecule, the “DNMDP AUC” value [3] was 5.6905, the “Robust Z-score” value [3] was −0.991 and the “DNMDP AUC” value [4] was 5.7872. The “Robust Z-score” value [4] was −0.8895, the “DNMDP AUC” value [5] was 6.219 and the “Robust Z-score” value [5] was −0.4363. The “DNMDP AUC” value (NCIH23 (LUNG)) was 6.1854, the “Robust Z-score” value (NCIH23 (LUNG)) was −0.4716 and the “DNMDP AUC” value (NCIH1184 (LUNG)) was 6.1776. The “Robust Z-score” value (NCIH1184 (LUNG)) was −0.4797, the “DNMDP AUC” value (NCIH1355 (LUNG)) was 6.171 and the “Robust Z-score” value (NCIH1355 (LUNG)) was −0.4867. For the same molecule, the “DNMDP AUC” value (NCIH1435 (LUNG)) was 5.9756, the “Robust Z-score” value (NCIH1435 (LUNG)) was −0.6918 and the “DNMDP AUC” value (NCIH1563 (LUNG)) was 1.0887. The “Robust Z-score” value (NCIH1563 (LUNG)) was −5.821, the “DNMDP AUC” value (NCIH1793 (LUNG)) was 6.2189 and the “Robust Z-score” value (NCIH1793 (LUNG)) was −0.4364. For the same molecule, the “DNMDP AUC” value (NCIH2009 (LUNG)) was 5.7594, the “Robust Z-score” value (NCIH2009 (LUNG)) was −0.9187 and the “DNMDP AUC” value (NCIH2122 (LUNG)) was 1.3105. For the same molecule, the “Robust Z-score” value (NCIH2122 (LUNG)) was −5.588, the “DNMDP AUC” value (NCIH2141 (LUNG)) was 5.7218 and the “Robust Z-score” value (NCIH2141 (LUNG)) was −0.9582. The “DNMDP AUC” value [6] was 5.7088, the “Robust Z-score” value [6] was −0.9718 and the “DNMDP AUC” value [7] was 5.8945. For the same molecule, the “Robust Z-score” value [7] was −0.7769, the “DNMDP AUC” value [8] was 6.1512 and the “Robust Z-score” value [8] was −0.5075. For the same molecule, the “DNMDP AUC” value (ONCODG1 (OVARY)) was 5.8296, the “Robust Z-score” value (ONCODG1 (OVARY)) was −0.845 and the “DNMDP AUC” value (PC14 (LUNG)) was 6.2003. The “Robust Z-score” value (PC14 (LUNG)) was −0.4559, the “DNMDP AUC” value [9] was 5.789 and the “Robust Z-score” value [9] was −0.8876. The “DNMDP AUC” value [10] was 5.8519, the “Robust Z-score” value [10] was −0.8216 and the “DNMDP AUC” value (RERFLCAD1 (LUNG)) was 6.1862. The “Robust Z-score” value (RERFLCAD1 (LUNG)) was −0.4707, the “DNMDP AUC” value (RKN (SOFT TISSUE)) was 6.1579 and the “Robust Z-score” value (RKN (SOFT TISSUE)) was −0.5004. The “DNMDP AUC” value [11] was 5.9827, the “Robust Z-score” value [11] was −0.6843 and the “DNMDP AUC” value (RVH421 (SKIN)) was 1.4556. The “Robust Z-score” value (RVH421 (SKIN)) was −5.436, the “DNMDP AUC” value [12] was 6.0502 and the “Robust Z-score” value [12] was −0.6135. For the same molecule, the “DNMDP AUC” value (SKCO1 (LARGE INTESTINE)) was 5.688, the “Robust Z-score” value (SKCO1 (LARGE INTESTINE)) was −0.9936 and the “DNMDP AUC” value (SKLU1 (LUNG)) was 6.0109. The “Robust Z-score” value (SKLU1 (LUNG)) was −0.6547, the “DNMDP AUC” value (SKMEL3 (SKIN)) was 1.2215 and the “Robust Z-score” value (SKMEL3 (SKIN)) was −5.682. For the same molecule, the “DNMDP AUC” value (SKMEL5 (SKIN)) was 5.9639, the “Robust Z-score” value (SKMEL5 (SKIN)) was −0.7041 and the “DNMDP AUC” value (SKNBE2 (AUTONOMIC GANGLIA)) was 5.7717. The “Robust Z-score” value (SKNBE2 (AUTONOMIC GANGLIA)) was −0.9058, the “DNMDP AUC” value (SKNSH (AUTONOMIC GANGLIA)) was 5.8424 and the “Robust Z-score” value (SKNSH (AUTONOMIC GANGLIA)) was −0.8316. For the same molecule, the “DNMDP AUC” value (SNU119 (OVARY)) was 6.1473, the “Robust Z-score” value (SNU119 (OVARY)) was −0.5115 and the “DNMDP AUC” value (SNU620 (STOMACH)) was 6.1039. For the same molecule, the “Robust Z-score” value (SNU620 (STOMACH)) was −0.5571, the “DNMDP AUC” value (SNU869 (BILIARY TRACT)) was 5.7543 and the “Robust Z-score” value (SNU869 (BILIARY TRACT)) was −0.9241. For the same molecule, the “DNMDP AUC” value [13] was 6.2071, the “Robust Z-score” value [13] was −0.4488 and the “DNMDP AUC” value (SNU1272 (KIDNEY)) was 6.0226. The “Robust Z-score” value (SNU1272 (KIDNEY)) was −0.6424, the “DNMDP AUC” value (SUIT2 (PANCREAS)) was 5.8956 and the “Robust Z-score” value (SUIT2 (PANCREAS)) was −0.7757. For the same molecule, the “DNMDP AUC” value (T3M10 (LUNG)) was 6.1867, the “Robust Z-score” value (T3M10 (LUNG)) was −0.4702 and the “DNMDP AUC” value (TE8 (OESOPHAGUS)) was 6.2119. For the same molecule, the “Robust Z-score” value (TE8 (OESOPHAGUS)) was −0.4437, the “DNMDP AUC” value (TE125T (SOFT TISSUE)) was 5.744 and the “Robust Z-score” value (TE125T (SOFT TISSUE)) was −0.9349. The “DNMDP AUC” value (TUHR14TKB (KIDNEY)) was 5.8451, the “Robust Z-score” value (TUHR14TKB (KIDNEY)) was −0.8287 and the “DNMDP AUC” value [14] was 6.1481. The “Robust Z-score” value [14] was −0.5107, the “DNMDP AUC” value [15] was 6.1906 and the “Robust Z-score” value [15] was −0.4661. The “DNMDP AUC” value [16] was 6.1777 and the “Robust Z-score” value [16] was −0.4796.
